According to ChEMBL document CHEMBL4257544, “Synthesis and biological evaluation of novel asymmetric naphthalene diimide derivatives as anticancer agents depending on ROS generation” (Medchemcomm, 2018):

Legend:
[1] = system: SMMC-7721; experiment: Cytotoxicity against human SMMC7721 cells after 48 hrs by MTT assay; format: functional, cell-based; conditions: SMMC-7721, 48 h
[2] = system: MCF7; experiment: Cytotoxicity against human MCF7 cells after 48 hrs by MTT assay; format: functional, cell-based; conditions: MCF7, 48 h
[3] = system: HepG2; experiment: Cytotoxicity against human HepG2 cells after 48 hrs by MTT assay; format: functional, cell-based; conditions: HepG2, 48 h
[4] = system: HCT-116; experiment: Cytotoxicity against human HCT116 cells after 48 hrs by MTT assay; format: functional, cell-based; conditions: HCT-116, 48 h
[5] = system: MDA-MB-231; experiment: Cytotoxicity against human MDA-MB-231 cells after 48 hrs by MTT assay; format: functional, cell-based; conditions: MDA-MB-231, 48 h
[6] = Solubility of the compound; format: physicochemical

SMILES | IC50 [1] [µM] | IC50 [2] [µM] | IC50 [3] [µM] | IC50 [4] [µM] | IC50 [5] [µM] | solubility [6]
CN(C)CCN1C(=O)c2cccc3cc(N)cc(c23)C1=O [AMONAFIDE] | 9.37 | 12.9 | 9.45 | 6.46 | 6.62 | –
CCCCN1C(=O)c2ccc3c4c(ccc(c24)C1=O)C(=O)N(C1CCCCC1)C3=O | > 50 | > 50 | > 50 | 45.9 | > 50 | Insoluble
CCCCN1C(=O)c2ccc3c4c(ccc(c24)C1=O)C(=O)N(CC(C)C)C3=O | 36.4 | 39.6 | 45.2 | 28.2 | > 50 | Insoluble
CCCCN1C(=O)c2ccc3c4c(ccc(c24)C1=O)C(=O)N(CCC)C3=O | > 50 | > 50 | > 50 | > 50 | > 50 | Insoluble
CCCCN1C(=O)c2ccc3c4c(ccc(c24)C1=O)C(=O)N(C1CC1)C3=O | > 50 | > 50 | > 50 | 16.3 | > 50 | Insoluble
CCCCN1C(=O)c2ccc3c4c(ccc(c24)C1=O)C(=O)N(c1ncccn1)C3=O | 35.1 | 12.6 | 17 | 9.22 | 15.1 | –
CCCCN1C(=O)c2ccc3c4c(ccc(c24)C1=O)C(=O)N(CC1CC1)C3=O | > 50 | > 50 | > 50 | 32.3 | > 50 | Insoluble
O=C1c2ccc3c4c(ccc(c24)C(=O)N1CCCO)C(=O)N(CCCN1CCOCC1)C3=O | 2.7 | 6.98 | 3.08 | 4.35 | 7.64 | –
CCCCN1C(=O)c2ccc3c4c(ccc(c24)C1=O)C(=O)N(c1cccnc1)C3=O | 37.9 | > 50 | 35.9 | 36.3 | > 50 | –
CN(C)CCCN1C(=O)c2ccc3c4c(ccc(c24)C1=O)C(=O)N(CCCO)C3=O | 4.44 | 3.36 | 5.96 | 5.29 | 6.21 | –
CC(C)CN1C(=O)c2ccc3c4c(ccc(c24)C1=O)C(=O)N(CCCO)C3=O | 3.8 | 4.78 | 4.14 | 8.29 | 5.39 | –
CCCCN1C(=O)c2ccc3c4c(ccc(c24)C1=O)C(=O)N(CCCN1CCOCC1)C3=O | 25.4 | 21.4 | 30.6 | 32.7 | 18.2 | –
